Test results taken from patent publication US20240246963A1, “BIFUNCTIONAL COMPOUNDS AND PHARMACEUTICAL USES THEREOF” (RISEN (SUZHOU) PHARMA TECH CO., LTD., priority 2022, published 2024).

Experiments:
GP2D cells (G12D) = experiment: Cell proliferation study (Cell Titer Glo, 72 hours), GP2D; type: cell-based
Method: (§1) Aspc-1(Cobioer, CBP60546), GP2D(Cobioer, CBP60683), Mia paca2 (Cobioer, CBP60136), NCI-H358 (Cobioer, CBP60544), H727 (Cobioer, CBP60182), MKN-1 (Cobioer, CBP60486), and PSN1 (Cobioer, CBP61215) cells in exponential growth phase were seeded into a 96-well plate (Greiner, 655090) at density of 3E3/well. Cells were cultured overnight at 37° C. with 5% CO2. On the next day, cells were treated with compound at various concentrations for 72 hours in 37° C., 5% CO2 incubator (final DMSO concentration was 0.1%). After treatment, 100 μL Cell Tier Glo (Promega, G7573) were added to every well on the cell plate and incubated at room temperature (RT) for 10 minutes. Cell growth status was measured with Cell Tier Glo (Promega, G7573) following manufacturer's directions. Inhibition level was calculated according to the following formula: […]
(§2) where the “Maximum Signal” are signal of wells containing DMSO without compound; the “Minimum Signal” are signal of wells recorded at Day 0 prior to commencement of the experiment; and the “Test compound signal” are signal of wells containing compound at established concentrations.
(§3) The inhibition curve was obtained with GraphPad 7.0 software using four-parameter equation.

NCI-H358 cells (G12C) = experiment: Cell proliferation study (Cell Titer Glo, 72 hours), NCI-H358; type: cell-based; conditions: Homo sapiens
Method: as §1, §2, §3

Mia paca2 cells (G12C) = experiment: Cell proliferation study (Cell Titer Glo, 72 hours), Mia paca2; type: cell-based; conditions: Homo sapiens, MIA PaCa-2
Method: as §1, §2, §3

PSN-1 cells (G12R) = experiment: Cell proliferation study (Cell Titer Glo, 72 hours), PSN-1; type: cell-based; conditions: Homo sapiens, PSN1
Method: as §1, §2, §3

AsPc-1 cells (G12D) = experiment: Cell proliferation study (Cell Titer Glo, 72 hours), AsPc-1; type: cell-based; conditions: Homo sapiens, ASPC1
Method: as §1, §2, §3

RAS G12D protein = target: T1, RAS G12D protein (Homo sapiens, UniProt P01116, G12D); experiment: Protein degradation study (western blot) in Aspc-1 cells; type: cell-based; conditions: for percent protein degradation at 0.01 µM: 0.010 μM compound; for percent protein degradation at 0.1 µM: 0.1 μM compound; for Dmax: ASPC1, G12D in Aspc-1 cells; for DC50: half-maximum degradation concentration on G12D in Aspc-1 cells
T1 construct: host or cells: Aspc-1 (AsPC-1) cells
Method: Aspc-1 (Cobioer, CBP60546) cells in exponential growth phase were inoculated on a 6-well cell culture plate (Corning, 3516) at density of 1E6/well; and cells in the plate were cultured in a 37° C. incubator containing 5%-carbon dioxide. The next day, test compounds were dissolved in DMSO (Sigma, RNBF5902) for the preparation of a 10-mM concentration stock solution. The stock solution was diluted with complete medium (RPMI-1640 supplemented with 10% fetal bovine serum, 1% penicillin-streptomycin), yielding working solutions of various concentrations. The plate, after the addition of compounds, was placed in a 5% carbon dioxide incubator, and incubated at 37° C. for 24 hours (final DMSO concentration was 0.1%). The plate was then removed from the incubator, and the cells were washed twice with precooled PBS (Gibco, 14190250), followed by addition of 80 μL RIPA (CST, 9806S) lysis buffer (containing protease inhibitor (Invitrogen™, AM2696)) to each well. The adherent cells were scraped off with a cell scraper, and the cell lysate was transferred to a 1.5 mL centrifuge tube followed with a 30-minute incubation on ice. The lysate was then clarified with centrifugation at 12000 rpm for 10 min at 4° C. The supernatant was transferred into a new 1.5 mL centrifuge tube, and protein concentration was measured with BCA protein detection kit (Thermo Fisher, 23225). G12D protein level was assessed by western blot. A mixture of cell lysate (40 μL) and loading buffer (10 μL, 5×SDS (Beyotime, P0015L)) was denatured in a water-bath at 95° C. for 10 min. The denatured protein sample, at 30 μg/well, was loaded into a corresponding well of a 4-20% Bis-Tris gel (Kingsley, M00656). Protein samples were initially electrophoresed at 80 V for 30 minutes, followed by 120 V for 40 minutes, until the bromophenol blue strip ran to an appropriate position. After electrophoresis, iBlot2 (Life Technologies, IB21001) was used to transfer the separated samples onto PVDF film. The PVDF membrane was washed with double-distilled water and then blocked in TBST (Thermo Scientific, 28360) buffer containing 5% non-fat milk, for 2 hours. Blocked membrane was rinsed with tris-buffered saline tween-2 (Thermo Scientific, 28360, TBST) three times, 10 minutes each. Membrane was then incubated with 1:1000 diluted RAS Gi2D primary antibody (CST, cat #14429S) overnight at 4° C. Membrane was rinsed in a way described previously followed by 1 hour incubation of secondary antibody at room temperature. After washing the film for three times with TBST, ECL color developing solution was applied, and image was captured with Biorad Chemi Doc gel imager. The band gray value was quantified (Image Lab), and protein degradation level was calculated according to the following formulas:
Level of RAS G12D protein expression=(RAS G12D−compound/β-Actin)−compound/(RAS G12D−DMSO/β-Actin−DMSO)
Level of degradation (%)=(1−Rate of RAS G12D protein expression)×100
Symbols of −, +, ++, +++, ++++, +++++ indicate that the degradation level of Ras protein induced by test compounds was 10% or less, 10 to 30%, 30 to 60%, 60 to 70%, 70 to 75%, and greater than 75%, respectively. “NT” indicates not tested.
“NT” indicates not tested.

MKN1 cells (WT) = experiment: Cell proliferation study (Cell Titer Glo, 72 hours), MKN1; type: cell-based; conditions: Homo sapiens, MKN-1
Method: as §1, §2, §3

GP2D cells = experiment: Tumor xenograft study (GP2D); type: in vivo, Balb/c nude mice (Nu/Nu)
Method: All studies were conducted in accordance with all applicable regulations and guidelines of the Institutional Animal Care and Use Committee (IACUC). Mice were maintained under pathogen-free conditions, and food and water were provided ad libitum. 6-8-week-old female, Balb/c nude mice (Nu/Nu) were injected subcutaneously with GP2D cells in 100 μL of PBS and Matrigel matrix in the right hind flank with 5×10^6 cells 50:50 cells: Matrigel. Mouse health was monitored daily, and caliper measurements began when tumors were palpable. Tumor volume measurements were determined utilizing the formula 0.5×L×W^2 in which L refers to length and W refers to width of each tumor. When tumors reached an average tumor volume of ˜200 mm^3, mice were randomized into treatment groups. The animals were divided into at least five mice per group. Mice were treated with test compound. Animals were monitored daily, and body weights and tumors were measured twice per week. “TGI” means tumor growth inhibition value.

[1] = Pharmacokinetics in male ICR mice; type: in vivo; conditions: mouse, plasma
NCI-H727 cells (G12V) = experiment: Cell proliferation study (Cell Titer Glo, 72 hours), NCI-H727; type: cell-based; conditions: Homo sapiens
Method: as §1, §2, §3

[2] = ASPC1, 24 h, Aspc-1 cells, 24 hours, read-out: Rate of protein degradation (%)

T1 sequence (P01116 1-188 isoform P01116-2 G12D): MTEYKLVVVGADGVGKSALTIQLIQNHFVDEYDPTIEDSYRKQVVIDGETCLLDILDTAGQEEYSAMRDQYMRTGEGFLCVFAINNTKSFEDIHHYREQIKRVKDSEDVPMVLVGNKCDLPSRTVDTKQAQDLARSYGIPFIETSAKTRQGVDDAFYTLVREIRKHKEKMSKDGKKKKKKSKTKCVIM

| Structure (SMILES) | IC50 (GP2D cells (G12D)) [nM] | IC50 (NCI-H358 cells (G12C)) [nM] | IC50 (Mia paca2 cells (G12C)) [nM] | IC50 (PSN-1 cells (G12R)) [nM] | IC50 (AsPc-1 cells (G12D)) [nM] | percent protein degradation at 0.01 µM (RAS G12D protein; [2]) [%] | percent protein degradation at 0.1 µM (RAS G12D protein; [2]) [%] | Dmax (RAS G12D protein) [%] | DC50 (RAS G12D protein) [nM] | IC50 (MKN1 cells (WT)) [nM] | TGI (%) (GP2D cells; IP, 10 mg/kg, q3d, 21 days) | AUC(0-t) ([1]; IV (3 mg/kg)) [ng·h/mL] | half-life ([1]; IV (3 mg/kg)) [h] | AUC(0-t) ([1]; PO (10 mg/kg)) [ng·h/mL] | half-life ([1]; PO (10 mg/kg)) [h] | IC50 (NCI-H727 cells (G12V)) [nM] | percent protein degradation at 0.005 µM (RAS G12D protein; ASPC1, 24 h, 0.005 μM compound, Aspc-1 cells, 24 hours, read-out: Rate of protein degradation (%)) [%] | TGI (%) (GP2D cells; PO, 30 mg/kg, bid, 14 days) |
| --- | --- | --- | --- | --- | --- | --- | --- | --- | --- | --- | --- | --- | --- | --- | --- | --- | --- | --- |
| CCc1c(F)ccc2cc(O)cc(-c3ncc4c(N5CCC[C@@](C)(O)C5)nc(OCC5(CN6CCC7(CC6)CC(N6CCC(c8ccc9c(C%10CCC(=O)NC%10=O)nn(C)c9c8)CC6)C7)CC5)nc4c3F)c12 (stereo partly shown) [Compound 86] | 0.158 | 17.6 | 3.38 | 459 | 15.6 | > 75 | > 75 | 78 | 1 to 10 | 400 | 75.8 | 1330 | 14.3 | 103 | 6.52 | 2.45 |  |  |
| CCc1c(F)ccc2cc(O)cc(-c3ncc4c(N5CCC[C@@](C)(O)C5)nc(OCC5(CN6CCC(CN7CCC(c8ccc9c(C%10CCC(=O)NC%10=O)nn(C)c9c8)CC7)CC6)CC5)nc4c3F)c12 (stereo partly shown) [Compound 101] | 0.214 | 23.9 | 9.51 | 463 | 109 | 70 to 75 | 70 to 75 |  | 1 to 10 | 409 |  |  |  |  |  | 16.4 |  |  |
| CCc1c(F)ccc2cc(O)cc(-c3ncc4c(N5CCC[C@]6(CCO6)C5)nc(OCC5(CN6CCC7(CC6)CC(N6CCC(c8cc9c(cc8F)c(N8CCC(=O)NC8=O)nn9C)CC6)C7)CC5)nc4c3F)c12 [Compound 202] | 0.06 | 17.1 |  |  | 7.83 |  |  | 81 | 1 to 10 |  |  |  |  |  |  | 3.61 | > 75 | 75.8 |
